# Legend:
# [1] = target: T1, purified human DPP‐4 enzyme (Homo sapiens, UniProt P27487); assay: In vitro DPP‐4 degradation; format: in vitro ADME
# T1 construct: purchased Sigma-Aldrich
# Method: PP peptides (50 μg) were incubated at 37°C for 0–8 h with 5 μL of purified human DPP‐4 enzyme (0.01 U/L, Sigma‐Aldrich, Gillingham, UK). Degradation reactions were terminated via the addition of 10 μL 10% (v/v) trifluoroacetic acid/water solution. Reaction mixes were separated by reverse phase rp‐HPLC using a Phenomenex C‐18 analytical column (250 × 4.6 mm^2) with UV absorbance detection at 214 nm (ThermoQuest SpectraSystem UV2000 detector). HPLC peaks of interest were collected and analyzed by MALDI‐TOF MS on a Perseptive Biosystems Voyager‐DE Biospectrometry (Hertfordshire, UK).
# BRIN‐BD11 beta‐cells = assay: Beta‐cell proliferation (Ki‐67 staining); format: cell-based; settings: peptide 10^−6 M, versus control cultures, n = 3
# Method: (§1) To assess the effects of PP and related peptides (10^−8 and 10^−6 M) on beta‐cell proliferation and apoptosis, BRIN‐BD11 beta‐cells were seeded onto sterilized, clear‐glass coverslips (16 mm diameter) and placed in 12‐well plates (Falcon Ltd) at a density of 40,000 cells per well and cultured for 18 h. Media control (11.1 mM glucose), GLP‐1 (10^−8 and 10^−6 M), and a cytokine cocktail mix (IL‐1β [100 U/mL], IFNγ [20 U/mL], TNFα [200 U/mL], Sigma Aldrich, UK) were employed as controls, as appropriate. Cells were then rinsed with PBS and fixed using 4% paraformaldehyde. After antigen retrieval with sodium citrate buffer at 95°C for 20 min, blocking was performed using 2% bovine serum albumin (BSA) for 45 min. For proliferation studies, the slips were then incubated at 37°C with rabbit anti‐Ki‐67 primary antibody (Abcam, ab15580), and subsequently with Alexa Fluor® 488 secondary antibody. Coverslips were mounted onto polylysine‐coated microscope slides using a 50:50 glycerol:PBS solution and stored at 4°C until required for analysis. To assess the ability of PP peptides to protect against cytokine‐induced apoptosis, cells were seeded, washed, and fixed as above, with the exception that the media was supplemented with the cytokine mix. The slips were then incubated at 37°C with TUNEL reaction mix for 60 min (Roche Diagnostics, Germany), and mounted onto microscope slides. To assess receptor specificity, co‐incubation of PP peptides with the well characterized NPY4R antagonist, (S)‐VU0637120,[24] at 10^−5 M was employed for beta‐cell proliferation experiments, conducted as detailed above. All slides were viewed using a fluorescent microscope (Olympus System Microscope, model BX51; Southend‐on‐Sea, UK) and photographed by DP70 camera adapter system. Proliferation/TUNEL positive frequency was determined using the cell‐counter function on ImageJ Software and expressed as % of total cells analyzed.
# NPY4R = target: T2, NPY4R (Rattus norvegicus, UniProt Q63447); assay: Receptor specificity: beta‐cell proliferation with NPY4R antagonist (S)‐VU0637120; format: cell-based; settings: peptide 10^−6 M co‐incubated with NPY4R antagonist (S)‐VU0637120 10^−5 M; Ki‐67; n = 3
# T2 construct: endogenous in cells; host or cells: BRIN-BD11 beta cells
# Method: as §1, with “The slips were then incubated at 37°C with TUNEL reaction mix for 60 min (Roche Diagnostics, Germany), and mounted onto microscope slides. To assess receptor specificity, co‐incubation of PP peptides with the well characterized NPY4R antagonist, (S)‐VU0637120,[24] at 10^−5 M was employed for beta‐cell proliferation experiments, conducted as detailed above. All slides were viewed using a fluorescent microscope (Olympus System Microscope, model BX51; Southend‐on‐Sea, UK) and photographed by DP70 camera adapter system.” left out
# C57BL/6 mice = assay: Glucose‐stimulated plasma insulin in mice; format: in vivo; settings: peptide 25 nmol/kg with glucose 18 mmol/kg i.p., versus glucose control; n = 6
# Method: Acute in vivo studies were conducted in groups (n = 6) of 4‐month‐old male C57BL/6 mice (Envigo, Huntington, UK). All mice were maintained on standard rodent chow (10% fat, 30% protein, and 60% carbohydrate; Trouw Nutrition, Northwich, UK), and drinking water provided ad libitum. Mice were housed individually and kept in a temperature‐controlled environment (22 ± 2°C), with a 12‐h light/dark cycle. Experiments were carried out in accordance with the UK Animal Scientific Procedures Act 1986 as well as being approved by Ulster University Animal Ethics Review Committee (AWERB) committee and protected by the UK Home Office Animal project license number PPL2902, approved on April 26, 2021. Acute effects of test peptides on food intake were tested in overnight (16 h) fasted mice. Briefly, fasted mice were administered an intraperitoneal (i.p.) injection of saline vehicle (0.9% (w/v) NaCl) alone or in combination with test peptides (each at 25, 75, or 200 nmol/kg bw) and cumulative food intake measured at regular intervals, to assess the pharmacodynamic profile of the test peptides. For food intake studies, mice were provided with preweighed rodent maintenance diet in their food hopper at t = 0 min, which was then re‐weighed at each timepoint with all due care taken to account for any wastage or crumbling of the food pellets. In this regard, the investigator was present at all times during the 180‐min test period to ensure accuracy and consistency in all measurements. Furthermore, effects of PP or related peptides (25 nmol/kg bw) on glucose homeostasis and insulin secretion were evaluated in overnight fasted mice following i.p. injection of glucose alone (18 mmol/kg bw) or in combination with PP peptides (each at 25 nmol/kg bw). […] Blood glucose was measured immediately using a hand‐held Ascencia Contour blood glucose meter (Bayer Healthcare, Newbury, Berkshire, UK). For plasma insulin, blood was collected in chilled fluoride/heparin‐coated microcentrifuge tubes (Sarstedt, Numbrecht, Germany) and centrifuged using a Beckman microcentrifuge (Beckman Instruments, Galway, Ireland) for 10 min at 12,000 rpm. Plasma was separated and stored at −20°C, until determination of plasma insulin by radioimmunoassay.[23]
# T2 sequence (Q63447 whole entry): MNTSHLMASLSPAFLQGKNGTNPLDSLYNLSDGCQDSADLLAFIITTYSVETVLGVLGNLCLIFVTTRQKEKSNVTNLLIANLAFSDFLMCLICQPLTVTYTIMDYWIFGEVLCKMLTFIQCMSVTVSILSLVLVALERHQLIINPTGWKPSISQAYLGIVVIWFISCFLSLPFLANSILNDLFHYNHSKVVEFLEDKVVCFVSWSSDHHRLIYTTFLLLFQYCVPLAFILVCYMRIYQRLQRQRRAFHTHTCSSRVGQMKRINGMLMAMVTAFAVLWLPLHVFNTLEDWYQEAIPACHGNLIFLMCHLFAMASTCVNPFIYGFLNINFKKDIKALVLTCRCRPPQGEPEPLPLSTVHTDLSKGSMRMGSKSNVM
# T1 sequence (P27487 whole entry): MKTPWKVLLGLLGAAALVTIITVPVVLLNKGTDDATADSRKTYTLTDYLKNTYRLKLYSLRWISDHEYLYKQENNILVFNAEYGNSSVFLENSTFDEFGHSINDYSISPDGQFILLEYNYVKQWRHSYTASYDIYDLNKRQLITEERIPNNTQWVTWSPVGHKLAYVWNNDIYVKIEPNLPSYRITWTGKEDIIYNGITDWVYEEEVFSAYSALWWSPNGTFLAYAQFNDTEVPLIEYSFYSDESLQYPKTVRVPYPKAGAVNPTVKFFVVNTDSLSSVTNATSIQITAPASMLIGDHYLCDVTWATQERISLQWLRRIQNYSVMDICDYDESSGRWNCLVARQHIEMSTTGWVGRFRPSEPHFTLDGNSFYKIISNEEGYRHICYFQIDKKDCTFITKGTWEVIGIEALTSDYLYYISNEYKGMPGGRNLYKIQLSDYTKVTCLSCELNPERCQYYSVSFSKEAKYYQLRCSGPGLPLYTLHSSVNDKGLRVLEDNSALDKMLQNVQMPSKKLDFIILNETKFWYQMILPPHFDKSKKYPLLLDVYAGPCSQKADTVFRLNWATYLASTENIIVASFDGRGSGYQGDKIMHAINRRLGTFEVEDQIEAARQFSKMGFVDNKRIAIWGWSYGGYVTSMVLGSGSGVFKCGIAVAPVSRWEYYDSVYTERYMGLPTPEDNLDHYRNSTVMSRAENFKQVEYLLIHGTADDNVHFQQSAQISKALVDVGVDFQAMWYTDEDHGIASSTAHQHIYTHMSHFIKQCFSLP
smiles,measurement,setting,value
"CC[C@H](C)[C@H](NC(=O)[C@H](Cc1ccc(O)cc1)NC(=O)[C@H](CCCNC(=N)N)NC(=O)[C@H](CCCNC(=N)N)NC(=O)[C@H](CC(C)C)NC(=O)[C@H](CC(=O)O)NC(=O)[C@H](C)NC(=O)[C@H](C)NC(=O)[C@H](Cc1ccc(O)cc1)NC(=O)[C@H](CCC(N)=O)NC(=O)[C@H](C)NC(=O)[C@H](CCSC)NC(=O)[C@H](CCC(N)=O)NC(=O)[C@H](CCC(=O)O)NC(=O)[C@@H]1CCCN1C(=O)[C@@H](NC(=O)[C@H](C)NC(=O)[C@H](CC(N)=O)NC(=O)[C@H](CC(=O)O)NC(=O)CNC(=O)[C@@H]1CCCN1C(=O)[C@H](Cc1ccc(O)cc1)NC(=O)[C@@H](NC(=O)[C@@H]1CCCN1C(=O)[C@H](CCC(=O)O)NC(=O)[C@H](CC(C)C)NC(=O)[C@@H]1CCCN1C(=O)[C@H](C)N)C(C)C)[C@@H](C)O)C(=O)N[C@@H](CC(N)=O)C(=O)N[C@@H](CCSC)C(=O)N[C@@H](CC(C)C)C(=O)N[C@H](C(=O)N[C@@H](CCCNC(=N)N)C(=O)N1CCC[C@H]1C(=O)N[C@@H](CCCNC(=N)N)C(=O)N[C@@H](Cc1ccc(O)cc1)C(N)=O)[C@@H](C)O [PP, Pancreatic polypeptide]","DPP‐4 mediated degradation, outcome in words",[1],N‐terminal di‐peptide cleavage to yield PP(3–36)
same,BRIN‐BD11 cell proliferation,BRIN‐BD11 beta‐cells,significantly (p < 0.001) enhanced
same,dependence of beta‐cell proliferative benefit on NPY4R signaling,NPY4R,dependent on NPY4R signaling
same,glucose‐induced insulin secretion (plasma insulin),C57BL/6 mice,slightly decreasing (p = <0.05 to 0.01)
